Laboratory results reported in article PMC6332090, “Synthesis and Preliminary Evaluation of N-Oxide Derivatives for the Prevention of Atherothrombotic Events” (Molecules, 2015).
Where two headings read alike, the source gives them in different places. Marks after values point to notes of the source that are not given here.

Assays:
[1] = system: mouse pulmonary thromboembolism model; assay: In vivo antithrombotic activity: acute pulmonary thromboembolism model induced by collagen-epinephrine mixture; details: mice; for % Protection / Paralyzed or Died Animals/Total: oral single dose 100 µmol/10 g body weight; for % Protection: [1 − (paralyzed + death animals)/total animals] × 100; for Paralyzed or Died Animals/Total: collagen (11 mg/kg) plus epinephrine (0.7 mg/kg) i.v. after 60 min, evaluated 15 min after stimulus; for deaths per group: ten per group, oral 100 µmol/10 g, 15 min after thrombogenic stimulus
Method: The antithrombotic effects of all compounds (3a,b, 4a,b, 8a,b, 9a,b, 13a,b and 14a,b) were evaluated in vivo using a mouse pulmonary thromboembolism model [18, 19].
In vivo pulmonary thromboembolism was induced in mice according to previously described procedures [18, 19]. Ten Swiss male mice (25−30 g) were used in each test group and the control group. Compounds (3a,b, 4a,b, 8a,b, 9a,b, 13a,b and 14a,b) and acetylsalicylic acid were given orally (100 µmol/10 g, 0.1 mL/10 g) using a 2% carboxymethylcellulose suspension as the vehicle. After 60 min, an intravenous injection of the thrombogenic stimulus containing a mixture of collagen (11 mg/kg) plus epinephrine (0.7 mg/kg) was administered through the tail vein. The dose of the pro-thrombotic mixture was previously characterized using a dose/response curve able to reliably reproduce 80%–90% mortality rate or animal paralysis [15]. The loss of the righting reflex was considered an indication of animal’s paralysis in the control group. The rates of animal survival and paralysis were evaluated 15 min after the administration of the thrombogenic stimulus. After this time, the animals were euthanized using carbon dioxide. […] The protection against acute pulmonary thromboembolism (percentage) was calculated as follows: [1 − (paralyzed + death animals)/total animals] × 100. The chi-square test was used to examine the difference between the control and treated groups.

[2] = system: rat platelet-rich plasma; assay: In vitro antiplatelet activity: platelet aggregation in rat platelet-rich plasma (turbidimetric method of Born and Cross); format: cell-based; details: compounds and ASA at 150 μM, rat PRP, n = 3; for inhibition at 150 µM: Platelet
Method: In vitro antiplatelet activity was evaluated using rat platelet-rich plasma in the presence of ADP (10 μM), arachidonic acid (100 μM) and collagen (5 μg/mL) [15, 16].
Five rats (Wistar; 200–250 g) were previously anesthetized by inhalation of isoflurane using a vaporizing system. Animal breathing was monitored during all procedures. Blood was withdrawn from each rat’s aorta artery and mixed with 3.8% trisodium citrate (9:1 v/v). The animals were then euthanized by deepening of anesthesia. Platelet-rich plasma (PRP) was prepared by centrifugation at 375× g for 10 min at room temperature. The platelet-poor plasma (PPP) was prepared by centrifugation of the pellet at 1800× g for 10 min at room temperature. Platelet aggregation was monitored by the turbidimetric method of Born and Cross [16] using a Chrono-Log aggregometer. PRP (300 μL) was incubated at 37 °C for 1 min with continuous stirring at 900 rpm. ADP (10 μM), type I collagen (5 μg/mL; molecular weight of 115–130 kDa) and arachidonic acid (100 μM) were used to induce platelet aggregation. […] Acetylsalicylic acid (AAS, 150 μM) was used as positive control. The results were expressed as an inhibition percentage. The statistical analysis was performed using ANOVA followed by Tukey’ s test.

[3] = system: micronucleated reticulocytes (MNRET) of mice; assay: In vivo genotoxicity: micronucleus test in peripheral blood reticulocytes
Method: The genotoxicity induced by 14a was evaluated using the micronucleus test.
Compound 14a (250 mg/kg) and negative control (1% carboxymethylcellulose (CMC) suspension and 0.2% tween; 0.3 mL) were administered to the animals orally. The positive control group received cyclophosphamide (50 mg/kg; i.p.). Groups of 10 Swiss mice of both sexes (25−30 g) were used in each test and control group. After 30 h, the animals were anesthetized using a mixture of ketamine/xylazine (100/10 mg/kg; i.p.), and […] of blood were collected from the tail vein and added to laminas pre-stained with acridine orange. The animals were euthanized via deepening of anesthesia. One thousand reticulocytes per animal were counted, and the frequency of micronucleated cells was registered. […] When p < 0.05, the average values for the treatments were compared using the Tukey method, calculating the minimum significant difference at α = 0.05.

[4] = aggregation induced by arachidonic acid 100 μM
[5] = aggregation induced by collagen 5 μg/mL
[6] = aggregation induced by ADP 10 μM
[7] = aggregation induced by ADP 10 μM, read-out: Platelet Inhibition (%) ADP (10 μM)
[8] = aggregation induced by arachidonic acid 100 μM, read-out: Platelet Inhibition (%) Arachidonic Acid (100 μM)
[9] = aggregation induced by collagen 5 μg/mL, read-out: Platelet Inhibition (%) Collagen (5 μg/mL)

## CC(=O)Oc1ccccc1C(=O)Oc1ccc(C(=O)N/N=C/c2ccc3c(c2)no[n+]3[O-])cc1 [Compound 14b, (E)-5-((2-(4-((2-Acetoxybenzoyl)oxy)benzoyl)hydrazono)methyl)benzo[c][1,2,5]oxadiazole 1-oxide]
[1]
  % Protection: 70 *^,† %
  Paralyzed or Died Animals/Total: 3/10
[2]; [4]
  Platelet Inhibition (%) Arachidonic Acid (100 μM): 79.1 ± 1.9 %
[2]; [5]
  Platelet Inhibition (%) Collagen (5 μg/mL): 79.8 ± 3.4 %

## 3-((2-(3-Hydroxybenzoyl)hydrazono)methyl)-4-methyl-1,2,5-oxadiazole 2-oxide [Compound 3a]
[1]
  deaths per group: two
  % Protection: 40 * %
  Paralyzed or Died Animals/Total: 6/10
[2]; [6]
  Platelet Inhibition (%) ADP (10 μM): 10.1 ± 3.3 %
[2]; [4]
  Platelet Inhibition (%) Arachidonic Acid (100 μM): 52.6 ± 4.1 %
[2]; [5]
  Platelet Inhibition (%) Collagen (5 μg/mL): 17.5 ± 2.7 %

## 5-((2-(3-Hydroxybenzoyl)hydrazono)methyl)benzo[c][1,2,5]oxadiazole 1-oxide [Compound 13a]
[1]
  % Protection: 70 *^,† %
  Paralyzed or Died Animals/Total: 3/10
[2]; [6]
  Platelet Inhibition (%) ADP (10 μM): 47.1 ± 2.5 %
[2]; [4]
  Platelet Inhibition (%) Arachidonic Acid (100 μM): 52.3 ± 3.8 %
[2]; [5]
  Platelet Inhibition (%) Collagen (5 μg/mL): 45.1 ± 3.8 %

## O=P1(N(CCCl)CCCl)NCCCO1 (stereo not drawn) [Cyclophosphamide, reference compound]
[3]; mice, positive control 50 mg/kg i.p., blood collected after 30 h, mean ± SD
  micronucleated reticulocytes (MNRET), frequency in 1000 cells: 41 ± 5

## 3-((2-(4-Hydroxybenzoyl)hydrazono)methyl)-4-methyl-1,2,5-oxadiazole 2-oxide [Compound 3b]
[1]
  deaths per group: two
  % Protection: 30 * %
  Paralyzed or Died Animals/Total: 7/10
[2]; [6]
  Platelet Inhibition (%) ADP (10 μM): 16.8 ± 2.9 %
[2]; [4]
  Platelet Inhibition (%) Arachidonic Acid (100 μM): 47.8 ± 3.7 %
[2]; [5]
  Platelet Inhibition (%) Collagen (5 μg/mL): 10.5 ± 3.3 %

## CC(=O)Oc1ccccc1C(=O)Oc1cccc(C(=O)N/N=C/c2c(-c3ccccc3)no[n+]2[O-])c1 [Compound 9a, (E)-3-((2-(3-((2-Acetoxybenzoyl)oxy)benzoyl)hydrazono)methyl)-4-phenyl-1,2,5-oxadiazole 2-oxide]
[1]
  deaths per group: two
  % Protection: 30 * %
  Paralyzed or Died Animals/Total: 7/10
[2]; [7]
  inhibition at 150 µM: 53.4 ± 2.1%
[2]; [8]
  inhibition at 150 µM: 73.4 ± 3.3%
[2]; [9]
  inhibition at 150 µM: 43.5 ± 4.7%

## O=C(NN=Cc1ccc2c(c1)no[n+]2[O-])c1ccc(O)cc1 [Compound 13b, 5-((2-(4-Hydroxybenzoyl)hydrazono)methyl)benzo[c][1,2,5]oxadiazole 1-oxide]
[1]
  % Protection: 70 *^,† %
  Paralyzed or Died Animals/Total: 3/10
[2]; [6]
  Platelet Inhibition (%) ADP (10 μM): 44.2 ± 5.1 %
[2]; [4]
  Platelet Inhibition (%) Arachidonic Acid (100 μM): 57.8 ± 4.9 %
[2]; [5]
  Platelet Inhibition (%) Collagen (5 μg/mL): 43.0 ± 3.1 %

## O=C(NN=Cc1c(-c2ccccc2)no[n+]1[O-])c1cccc(O)c1 [Compound 8a, 3-((2-(3-Hydroxybenzoyl)hydrazono)methyl)-4-phenyl-1,2,5-oxadiazole 2-oxide]
[1]
  deaths per group: two
  % Protection: 40 * %
  Paralyzed or Died Animals/Total: 6/10
[2]; [7]
  inhibition at 150 µM: 12.4 ± 3.7%
[2]; [8]
  inhibition at 150 µM: 55.1 ± 4.3%
[2]; [9]
  inhibition at 150 µM: 21.8 ± 5.1%

## (E)-3-((2-(3-((2-Acetoxybenzoyl)oxy)benzoyl)hydrazono)methyl)-4-methyl-1,2,5-oxadiazole 2-oxide [Compound 4a]
[1]
  deaths per group: two
  % Protection: 40 * %
  Paralyzed or Died Animals/Total: 6/10
[2]; [6]
  Platelet Inhibition (%) ADP (10 μM): 65.6 ± 2.4 %
[2]; [4]
  Platelet Inhibition (%) Arachidonic Acid (100 μM): 70.1 ± 2.9 %
[2]; [5]
  Platelet Inhibition (%) Collagen (5 μg/mL): 37.8 ± 4.1 %

## O=C(NN=Cc1c(-c2ccccc2)no[n+]1[O-])c1ccc(O)cc1 [Compound 8b, 3-((2-(4-Hydroxybenzoyl)hydrazono)methyl)-4-phenyl-1,2,5-oxadiazole 2-oxide]
[1]
  deaths per group: two
  % Protection: 40 * %
  Paralyzed or Died Animals/Total: 6/10
[2]; [7]
  inhibition at 150 µM: 9.2 ± 2.8%
[2]; [8]
  inhibition at 150 µM: 31.6 ± 3.9%
[2]; [9]
  inhibition at 150 µM: 8.8 ± 3.6%

## CC(=O)Oc1ccccc1C(=O)Oc1cccc(C(=O)N/N=C/c2ccc3c(c2)no[n+]3[O-])c1 [Compound 14a, (E)-5-((2-(3-((2-Acetoxybenzoyl)oxy)benzoyl)hydrazono)methyl)benzo[c][1,2,5]oxadiazole 1-oxide]
[1]
  % Protection: 80 *^,† %
  Paralyzed or Died Animals/Total: 2/10
[3]; mouse, in vivo, po, 250 mg/kg
  micronucleated reticulocytes (MNRET), frequency in 1000 cells: < 4
[2]; [4]
  Platelet Inhibition (%) Arachidonic Acid (100 μM): 76.9 ± 3.1 %
[2]; [5]
  Platelet Inhibition (%) Collagen (5 μg/mL): 85.3 ± 3.7 %

## CC(=O)Oc1ccccc1C(=O)Oc1ccc(C(=O)N/N=C/c2c(-c3ccccc3)no[n+]2[O-])cc1 [Compound 9b, (E)-3-((2-(4-((2-Acetoxybenzoyl)oxy)benzoyl)hydrazono)methyl)-4-phenyl-1,2,5-oxadiazole 2-oxide]
[1]
  % Protection: 50 *^,† %
  Paralyzed or Died Animals/Total: 5/10
[2]; [7]
  inhibition at 150 µM: 68.8 ± 1.3%
[2]; [8]
  inhibition at 150 µM: 82.7 ± 2.1%
[2]; [9]
  inhibition at 150 µM: 47.2 ± 2.9%

## (E)-3-((2-(4-((2-Acetoxybenzoyl)oxy)benzoyl)hydrazono)methyl)-4-methyl-1,2,5-oxadiazole 2-oxide [Compound 4b]
[1]
  % Protection: 50 *^,† %
  Paralyzed or Died Animals/Total: 5/10
[2]; [4]
  Platelet Inhibition (%) Arachidonic Acid (100 μM): 87.5 ± 2.6 %
[2]; [5]
  Platelet Inhibition (%) Collagen (5 μg/mL): 34.5 ± 3.5 %

## CC(=O)Oc1ccccc1C(=O)O [ASA, acetylsalicylic acid, reference compound]
[1]
  deaths per group: two
  % Protection: 30 * %
  Paralyzed or Died Animals/Total: 7/10
[2]; [7]
  inhibition at 150 µM: 0%
[2]; [9]
  inhibition at 150 µM: 77.1 ± 3.7%
[2]; [6]
  Platelet Inhibition (%) ADP (10 μM): did not inhibit
[2]; [4]
  Platelet Inhibition (%) Arachidonic Acid (100 μM): 72.2 ± 3.7 %
